{
  "source": "paper PMC9112895",
  "about": "“Selective Inhibition of Plasmodium falciparum ATPase 6 by Artemisinins and Identification of New Classes of Inhibitors after Expression in Yeast” (Antimicrobial Agents and Chemotherapy, 2022)",
  "biological_target": "T1, S769N PfATP6 (Plasmodium falciparum, UniProt Q08853, S769N)",
  "T1 construct": "expressed in transfected cells; host or cells: Saccharomyces cerevisiae K667-derived strain",
  "T1 sequence (Q08853 1-1228 S769N)": "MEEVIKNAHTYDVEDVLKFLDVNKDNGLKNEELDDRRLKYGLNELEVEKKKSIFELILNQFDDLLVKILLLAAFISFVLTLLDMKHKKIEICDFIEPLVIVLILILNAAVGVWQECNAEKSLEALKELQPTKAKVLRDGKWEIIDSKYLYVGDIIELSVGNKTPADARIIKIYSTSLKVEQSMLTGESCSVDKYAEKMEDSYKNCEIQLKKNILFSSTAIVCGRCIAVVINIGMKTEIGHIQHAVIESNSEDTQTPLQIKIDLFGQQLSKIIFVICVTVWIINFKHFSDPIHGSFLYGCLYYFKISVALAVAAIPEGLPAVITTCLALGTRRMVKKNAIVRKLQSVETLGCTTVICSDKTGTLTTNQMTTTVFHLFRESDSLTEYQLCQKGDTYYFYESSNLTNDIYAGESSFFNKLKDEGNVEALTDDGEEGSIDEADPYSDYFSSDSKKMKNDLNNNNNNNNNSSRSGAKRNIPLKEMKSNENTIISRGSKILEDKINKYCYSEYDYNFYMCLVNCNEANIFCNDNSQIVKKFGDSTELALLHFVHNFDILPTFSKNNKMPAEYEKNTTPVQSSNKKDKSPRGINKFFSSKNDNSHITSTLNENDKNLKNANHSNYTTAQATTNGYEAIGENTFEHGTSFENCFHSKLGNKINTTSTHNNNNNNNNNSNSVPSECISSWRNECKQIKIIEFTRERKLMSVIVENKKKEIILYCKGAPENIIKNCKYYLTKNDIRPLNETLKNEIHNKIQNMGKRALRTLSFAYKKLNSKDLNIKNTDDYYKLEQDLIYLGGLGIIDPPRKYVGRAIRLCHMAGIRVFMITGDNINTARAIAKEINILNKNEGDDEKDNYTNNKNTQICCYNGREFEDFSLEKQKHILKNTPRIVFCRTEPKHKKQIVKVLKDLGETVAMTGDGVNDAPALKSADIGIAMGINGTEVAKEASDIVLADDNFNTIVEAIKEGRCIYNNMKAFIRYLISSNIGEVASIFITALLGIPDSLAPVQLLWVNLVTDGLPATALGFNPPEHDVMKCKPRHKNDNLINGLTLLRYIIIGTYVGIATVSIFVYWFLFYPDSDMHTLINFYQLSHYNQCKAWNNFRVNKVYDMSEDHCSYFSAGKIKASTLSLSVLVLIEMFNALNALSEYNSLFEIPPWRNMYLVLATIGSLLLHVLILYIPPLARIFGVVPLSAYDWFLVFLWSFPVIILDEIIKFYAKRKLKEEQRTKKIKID",
  "test": "Yeast whole-cell assay, PfATP6 S769N mutant",
  "assay_type": "cell-based",
  "conditions": "read-out: IC50 (mean ± SD)",
  "procedure": "Yeast transformations were performed using the method described by Gietz and Schiestl ([48]), and transformants were selected by an uracil auxotrophic marker. Transformations were confirmed by colony PCR. Both K667 and K667Δpdr5::HIS were transformed with the following plasmids: pUGpd plasmid as a vector-only control (derived from pRS316 [49]); br434 plasmid (derived from pRS316 [50]) containing the SERCA1a coding region from rabbit skeletal fast-twitch muscle (pbr434-SERCA1a); and pUGpd containing the yeast-optimized coding region of PfATP6 from Plasmodium falciparum (pUGpd-PfATP6). Site-directed mutagenesis was performed on the SERCA1a coding region to produce the mutation E255L in the protein. Mutations were also introduced into the PfATP6 coding region to produce mutations L263E, A623E, and S769N and the double mutation A623E/S769N ([13]).\nThe screening assay used here was developed from the protocol used by Pulcini et al. ([13]). […] The optimal calcium concentration was periodically monitored and, if necessary, adjusted using a calcium concentration range of 10 to 30 mM. […] The yeast growth was estimated from the absorbance at 620 nm in a Tecan plate reader. […] The data collected were analyzed using GraphPad Prism v9.0 (GraphPad software, San Diego, CA, U.S.A).",
  "data": [
    {"smiles": "CC(=O)C1=C(O)[C@@H]2[C@H]3c4c[nH]c5cccc(c45)C[C@H]3C(C)(C)N2C1=O", "note": "[CPA, cyclopiazonic acid]", "values": [
      {"measurement": "IC50", "value": 6.49, "unit": "µM"}
    ]}
  ]
}
